# Measured values as given in patent US20120009280A1, “METHOD OF REDUCING THE RATE OF DEGRADATION OF A BIOLOGICAL MATERIAL” (Bio-Energy Ingredients Limited, priority 2009, published 2012).
# Experiments:
# [1] = test system: total micro-organism; test: Total microbial (plate) count of spent brewer's / wet distiller's grains stored at ambient temperature; format: cell-based; details: dose 15% w/w; distiller's grains not de-watered, Examples 16-18
# Source text: Samples of spent brewer's grains were drawn from the discharge line of a brewery in South Africa. The samples, packed in dry ice in a cold box, were transported over a distance of approximately 40 kilometres to a laboratory. At the laboratory, the samples were thoroughly mixed and initially split into a first portion (Portion 1) and a second portion (Portion 2). The second portion was about twice the size of the first. Portion 1 was left untreated. Material produced from Portion 1 and Portion 2 is designated below using the code “AR” (as received).
# Portion 2 was placed on a clean, standard, laboratory screen deck with 1.4 mm apertures supported from below. As much water as possible was manually squeezed out with a clean flat plastic disc and the sample was then manually remixed after the squeezing. The squeezed material was then split into a third portion (Portion 3) and a fourth portion (Portion 4) of approximately the same size. Material produced from Portion 3 and Portion 4 is designated below using the code “SO” (squeezed).
# Portion 4 was added to a high speed kitchen food-shredder and shredded for about two minutes. The shredded material was then returned to the 1.4 mm aperture screen and squeezed again, as described above, and manually remixed again after the second squeezing to produce a shredded and squeezed portion (Portion 5). Material produced from Portion 5 is designated below using the code “SH” (shredded).
# Samples of Portion 1 (“AR”), Portion 3 (“SO”) and Portion 5 (“SH”) were then delivered to a microbiological testing facility about 15 kilometres from the treatment laboratory. Each was tested for initial total microbial, yeast and mould counts, respectively.
# Separate untreated samples were similarly stored under insect-proof screens at ambient temperature for seven days (as shown in Tables 1 and 2). During the trial period the ambient temperature ranged from 11 to 33 degrees C.
# After exposure to the environment for seven days, all of the samples were tested at a South African National Accreditation System (SANAS) approved microbiological testing facility. Each was tested for total micro-organism, yeast and mould counts to determine the affect of the various treatments.
# Samples of spent brewer's grains were drawn from the discharge line of a brewery in South Africa.
# At the laboratory, the samples were thoroughly mixed and initially split into a first portion (Portion 1) and a second portion (Portion 2). Portion 1 was left untreated. A sample of Portion 1, was delivered immediately to a microbiological testing facility about 15 kilometres away from the treatment laboratory and was tested for initial total microbial, yeast and mould counts, respectively.
# Samples from Portion 2 were subjected to treatment with varying amounts of a powdered, commercially-available calcium oxide containing approximately 94% calcium oxide (CaO) as shown in Table 32. The treatments varied from 2.5 to 10% (w/w) calcium oxide addition. The samples were stored in batches (according to the calcium oxide treatment) under insect-proof screens at ambient temperature for fifty six days. […] During the trial period the ambient temperature ranged from 10 to 30 degrees C. As this period was the southern hemisphere spring/early summer, the humidity as well as ambient temperatures varied widely.
# Samples from each treatment were drawn every seven days. No further calcium oxide treatment or agitation took place after the initial mix. In each case the entire sample was isolated and delivered to the microbiological testing facility.
# (§1) In this trial the same source of wet distiller's grains (again with now partial water removal prior to treatment) was treated.
# as §1
# [2] = test system: total micro-organism; test: as above; format: cell-based; details: dose 10% w/w; distiller's grains not de-watered, Examples 16-18
compound,measurement,setting,value
[Ca+2].[O-]CC(O)CO.[O-]CC(O)CO [Ca-DGO (g)],preservation time with total microbial counts <100 cfu/g,[1],≧9 weeks
same,preservation time with total microbial counts <1000 cfu/g,[1],≧9 weeks
same,preservation time with total microbial counts <100 cfu/g,[2],≧4 weeks
same,preservation time with total microbial counts <1000 cfu/g,[2],≧4 weeks
[Ca+2].[O-]CC(O)CO.[O-]CC(O)CO [Ca-DGO (p)],preservation time with total microbial counts <10 cfu/g,[1],≧9 weeks
same,preservation time with total microbial counts <100 cfu/g,[1],≧9 weeks
same,preservation time with total microbial counts <1000 cfu/g,[1],≧9 weeks
same,preservation time with total microbial counts <100 cfu/g,[2],≧2 weeks
same,preservation time with total microbial counts <1000 cfu/g,[2],≧3 weeks
